Source: patent US20250109127A1, “METHODS OF USE OF PHENOXYPROPYLAMINE COMPOUNDS TO TREAT DEPRESSION” (Minerva Neurosciences, Inc., priority 2013, published 2025)
Several values for one entry are separate records, joined by “and”; a condition that tells them apart may be missing. Equal entries are not always repeated. Structures can show the parent of a compound that is named as a salt.

Tested on: 5-HT release in the rat prefrontal cortex
Test: Microdialysis: 5-HT release in prefrontal cortex after I.P. administration
Type: in vivo
Settings: for 5-HT release, individual animals / 5-HT release, MEAN: 0.3 mg/kg I.P.; for 5-HT release, individual animals: one column per animal R#11,12,18,23,29,30,17,24, hydrochloride; for 5-HT release, MEAN / 5-HT release (% of basal levels) measured in dialysates, MEAN: n = 8; for serotonin levels, increase (not statistically significant): SON-117 0.1 mg/kg IP; for 5-HT release (% of basal levels) measured in dialysates, MEAN: SON-117 3 mg/kg IP
Experimental: The aim of the study was to evaluate, using microdialysis, the effects of an intraperitoneal (I.P.) administration in rats of three different doses of SON-117 on dopamine and its metabolites, serotonin and its metabolite (5-HIAA), and norepinephrine levels in prefrontal cortex.
Thirty-two adult male Wistar rats were used for the whole study (4 groups of eight animals planned for the study, Table 1).
Surgery was performed on rats weighing about 300 g at the beginning of the experiments. Rats were anaesthetized with Ketamine (50 mg/kg) & Xylazine (15 mg/kg) by intramuscular administration. The animals were placed in a stereotaxic apparatus in the flat-skull position at a constant setting of −3.3 mm between ear bars and the incisor bar. The animals were treated with a local anesthesic (xylocaine 1%, Astra Zeneca) and an analgesic (Temgesic, from Schering Plough, 0.05 mg/kg, s.c.). A rostrocaudal midline incision was made with a lancet to expose the dorsal skull surface. The “stereotaxic zero” was defined by the Bregma in accordance with Paxinos and Watson's atlas (1986). A hole was drilled in the skull with a drill and the meninges were pierced with a sterile needle to implant a CMA12 guide cannula which later received the dialysis probe.
Coordinates used for implanting guide cannula in prefrontal cortex from Bregma were anteroposterior 3.7 mm, mediolateral 0.8 mm, and dorsoventral −2 mm (top of the probe was at −5 mm). The guide cannula was fixed to the skull with two stainless steel screws (1.88 mm outside diameter) anchored. An application of dental cement was added. A plastic collar allowed each animal to be tethered to a Swivel assembly of the CMA 120 awake animal system. Following surgery, rats were kept in individual cages and allowed to recover for a minimum of 3-5 days before the experimentation. The rats were handled and put in plastic bowl for 10 min at least every day to habituate the animals to their new environment for the dialysis. An I.P. administration with saline was also performed every day.
Dialysis probes (CMA12/3 mm, membrane, 20 kD cut-off, Carnegie Medicine, Stockholm, Sweden), were carefully washed before inserting into the guide cannula. The wash was performed with the artificial cerebrospinal fluid (aCSF) medium (NaCl 147 mM, KCl 2.7 mM, CaCl2 1.2 mM, MgCl2 0.85 mM) at room temperature. The dialysis system was then equilibrated at 20° C. at a perfusion rate of 1 μl/min with a Carnegie pump (CMA100). All catheters (FEP tubing, internal volume of 1.2 μl/10 cm, and tubing adaptors) used for microdialysis were treated in the same conditions.
The probes duly prepared were inserted into the guide cannula and the CMA120 Swivel assembly secured to the animal using a plastic collar. Flow through the dialysis probe with aCSF was maintained at a rate of 1 μl/min during the whole experimentation. The first four fractions (corresponding to 2 hours) were discarded to avoid the effects of parenchymal disturbance and to ensure that an approximate steady-state level was reached. Fractions were then collected over a period of 8.5 h during which time the animals remained quiet. The dialysates were automatically collected with an autosampler (microfraction collector CMA 140, Carnegie Medicin) and stored at −80° C. until analysis. […] Perfusion was then maintained for 7 hours with aCSF. The dialysates (30 μl) were collected into 300 μl vials, transferred into dry ice and then kept frozen (−80° C.) until analysis. Frozen samples were shipped to a partner for analysis. At the end of the microdialysis study, a PBS with colored ink was perfused through the probe in order to visualize the dialyzed area.
Catecholamine assay: Concentrations of dopamine, DOPAC, HVA, 5-HIAA, 5-HT, and norepinephrin were determined for each sample by HPLC coupled with electrochemical detection. […]

Q: What does the source list for `Cc1nnc(-c2cc3c(OC[C@@H](O)CN4CCC(c5ccc(Cl)c(Cl)c5)CC4)cccc3o2)o1` [SON-117, (S)-1-(4-(3,4-dichlorophenyl)piperidino)-3-(2-(5-methyl-1,3,4-oxadiazol-2-yl)benzo(b)furan-4-yloxy)-2-propanol hydrochloride]?
A: 5-HT release, individual animals (T3 h 30-T4 h): 200.54 % of respective basal and 84.61 % of respective basal and 62.15 % of respective basal and 60.73 % of respective basal and 115.12 % of respective basal and 46.42 % of respective basal and 361.81 % of respective basal; 5-HT release, MEAN (T3 h-T3 h 30): 112.03 % of respective basal; 5-HT release, individual animals (T3 h-T3 h 30): 118.62 % of respective basal and 100.39 % of respective basal and 94.04 % of respective basal and 122.16 % of respective basal and 126.07 % of respective basal and 27.45 % of respective basal and 195.48 % of respective basal; 5-HT release, MEAN (T4 h 30-T5 h): 105.19 % of respective basal; 5-HT release, individual animals (T4 h 30-T5 h): 144.93 % of respective basal and 86.55 % of respective basal and 70.67 % of respective basal and 69.54 % of respective basal and 82.71 % of respective basal and 313.44 % of respective basal and 18.96 % of respective basal and 54.73 % of respective basal; 5-HT release, MEAN (T4 h-T4 h 30): 80.14 % of respective basal; 5-HT release, individual animals (T4 h-T4 h 30): 87.68 % of respective basal and 67.29 % of respective basal and 102.65 % of respective basal and 67.53 % of respective basal and 83.72 % of respective basal and 130.39 % of respective basal and 23.64 % of respective basal and 78.23 % of respective basal; 5-HT release, MEAN (T5 h 30-T6 h): 106.06 % of respective basal; 5-HT release, individual animals (T5 h 30-T6 h): 149.11 % of respective basal and 44.15 % of respective basal and 83.73 % of respective basal and 57.89 % of respective basal and 95.31 % of respective basal and 328.43 % of respective basal and 13.82 % of respective basal and 76.03 % of respective basal; 5-HT release, MEAN (T5 h-T5 h 30): 100.56 % of respective basal; 5-HT release, individual animals (T5 h-T5 h 30): 81.27 % of respective basal and 37.01 % of respective basal and 187.99 % of respective basal and 64.78 % of respective basal and 81.96 % of respective basal and 177.83 % of respective basal and 7.58 % of respective basal and 166.02 % of respective basal; 5-HT release, MEAN (T6 h 30-T7 h): 103.94 % of respective basal; 5-HT release, individual animals (T6 h 30-T7 h): 181.36 % of respective basal and 59.67 % of respective basal and 70.80 % of respective basal and 52.79 % of respective basal and 109.41 % of respective basal and 187.49 % of respective basal; 5-HT release, MEAN (T6 h-T6 h 30): 95.56 % of respective basal; 5-HT release, individual animals (T6 h-T6 h 30): 73.74 % of respective basal and 57.84 % of respective basal and 81.54 % of respective basal and 59.72 % of respective basal and 94.43 % of respective basal and 108.00 % of respective basal and 20.86 % of respective basal and 268.32 % of respective basal; 5-HT release, MEAN (T-30 min-T0 (before administration)): 94.43 % of respective basal; 5-HT release, MEAN (T-1 h 30-T-1 h (before administration)): 100.12 % of respective basal; 5-HT release, MEAN (T-1 h-T-30 min (before administration)): 104.14 % of respective basal; serotonin levels, increase (not statistically significant) (at 2.5 h): 368%; serotonin levels, increase (not statistically significant) (from 4.5 h to 7 h): 350%; 5-HT release, maximum increase observed (SON-117 0.1 mg/kg, at 2.5 h): 369%; levels of 5-HT compared to the citalopram treated group (significant) (SON-117 0.1 mg/kg, at 2.5 h, 4.5 and 5.5 h): higher; 5-HT dialysate levels vs mean pre-administration value (SON-117 0.3 mg/kg IP): no statistically significant differences; levels of 5-HT compared to the citalopram treated group (significant) (SON-117 0.3 mg/kg, at 1 h): slightly lower; 5-HT release (% of basal levels) measured in dialysates, MEAN (T0-T30 min): 100.79 % of basal levels; 5-HT release (% of basal levels) measured in dialysates, MEAN (T30-T1 h): 122.25 % of basal levels
